The results in this text go back to US7452997B2 (priority 2004, dated 2008).

pIC50: −log10 of the molar value. Where two headings read alike, the source gives them in different places.

The term pIC50 denotes the IC50 on a negative log10 scale, so that one unit is a factor of ten.

For one assay, the target named is human CB2 receptor (Homo sapiens, UniProt P34972). The assay is described as follows: Binding assay, cannabinoid CB2 receptor ([3H]-CP-55,940 displacement). The settings on record: SK-N-MC cell membranes, radioligand CP-55,940 0.2 nM. How it is done:
(§1) Binding Assay for CB1 or CB2 Agonists or Inverse Agonists
(§2) The human CB1 and CB2 receptors were stably expressed in SK-N-MC cells transfected with pcDNA3 CB-1 (human) or pcDNA3 CB-2 (human). The cells were grown in T-180 cell culture flasks under standard cell culture conditions at 37° C. in a 5% CO2 atmosphere. The cells were harvested by trysinization and homogenized in a homogenization buffer (10 mM Tris, 0.2 mM MgCl2, 5 mM KCl, with protease inhibitors aprotinin, leupeptin, pepstatin A and bacitracin) and centrifuged (2000 g). The supernatant was then centrifuged in 2M sucrose (31,300 g) to produce a semi-purified membrane pellet. The pellet was resuspended in homogenization and store at −80° C.
(§3) On the day of the assay, the pellet was thawed on ice and diluted in assay buffer (50 mM Tris-HCl, 5 mM MgCl2, 2.5 mM EDTA, 0.5 mg/mL fatty acid free bovine serum albumin, pH 7.5). The diluted membrane was added with buffer, test compound or standard and the radioligand [H]^3+-CP-55,940_(0.2 nM) to the wells of a 96-well polypropylene plate. Non-specific binding was measured in wells containing 10 uM WIN 55,212. The plate was covered and incubated for 90 minutes at 30° C. The contents were then aspirated onto a Packard UNIFILTER GF/C filter bottom plate prewet with 0.5% polyethyleneimine. The wells of the polypropylene plate were rinsed and aspirated seven times with a 0.9% saline-0.5% TWEEN 20 solution. The UNIFILTER plate was dried, a scintillation cocktail was added to each well and the counts representing binding were quantitated in a TOPCOUNT scintillation counter.
(§4) The IC50 binding values for compounds tested were calculated by linear regression and were obtained from studies in which varying compound concentrations were used.

The next assay concerns the target T1, human CB1 receptor (Homo sapiens, UniProt P21554).
T1 construct: expressed in transfected cells; host or cells: SK-N-MC cells, stably transfected with pcDNA3 CB-1 (human); semi-purified membrane pellet
Put plainly: biochemical. In kind it is binding. How it is done:
as §1, §2
as §3, with “The diluted membrane was added with buffer, test compound or standard and the radioligand [H]^3+-CP-55,940_(0.2 nM) to the wells of a 96-well polypropylene plate. Non-specific binding was measured in wells containing 10 uM WIN 55,212.” left out, “UNIFILTER” left out
as §4

[1] abbreviates: Cannabinoid CB2 Receptor Binding IC50, human CB2 receptor.
Setting [2] is: human CB2 receptor, read-out: Cannabinoid CB2 Receptor Binding IC50.

T1 sequence (P21554 whole entry): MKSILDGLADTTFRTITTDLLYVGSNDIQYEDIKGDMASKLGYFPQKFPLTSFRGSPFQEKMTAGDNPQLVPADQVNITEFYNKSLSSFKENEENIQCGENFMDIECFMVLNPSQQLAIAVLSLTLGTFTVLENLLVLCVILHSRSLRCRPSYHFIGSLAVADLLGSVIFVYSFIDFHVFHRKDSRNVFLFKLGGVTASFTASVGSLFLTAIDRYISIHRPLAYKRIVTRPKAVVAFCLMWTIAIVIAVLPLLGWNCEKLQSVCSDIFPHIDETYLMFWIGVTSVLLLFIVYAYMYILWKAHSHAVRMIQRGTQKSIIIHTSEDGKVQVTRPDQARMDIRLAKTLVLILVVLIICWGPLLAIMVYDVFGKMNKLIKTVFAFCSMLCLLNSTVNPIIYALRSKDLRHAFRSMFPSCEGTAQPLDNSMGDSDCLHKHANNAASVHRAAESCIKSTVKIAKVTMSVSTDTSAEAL
Chain of human CB2 receptor (P34972 whole entry): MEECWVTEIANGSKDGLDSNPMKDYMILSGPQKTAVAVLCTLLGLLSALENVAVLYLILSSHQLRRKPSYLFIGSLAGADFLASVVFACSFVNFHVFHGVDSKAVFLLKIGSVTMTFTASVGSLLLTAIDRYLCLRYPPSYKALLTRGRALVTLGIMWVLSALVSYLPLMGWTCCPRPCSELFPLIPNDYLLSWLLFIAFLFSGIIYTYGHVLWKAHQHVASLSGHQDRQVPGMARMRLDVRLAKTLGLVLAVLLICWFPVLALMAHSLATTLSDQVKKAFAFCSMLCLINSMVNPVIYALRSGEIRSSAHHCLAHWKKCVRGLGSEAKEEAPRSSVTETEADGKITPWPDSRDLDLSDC

Take `CCOC(=O)[C@H]1CCCC[C@@H]1NC(=O)c1nn(C2CCCCC2)c2c1CCCC2` [compound 59]: the results for the pIC50 at human CB2 receptor (setting [1]) and on human CB1 receptor were 7.15 and 6.47, respectively.

`COC(=O)C(Cc1ccc(OCc2ccccc2)cc1)NC(=O)c1nn(C2CCCCC2)c2c1CCCC2` (stereo not shown) [compound 81]: the pIC50 is 7.70 at human CB2 receptor (setting [1]) and 6.31 against human CB1 receptor.

For the molecule `COc1ccc(C(O)CNC(=O)c2nn(C3CCCCC3)c3c2CCCC3)cc1` (stereo not shown) [Cpd 241, 1-cyclohexyl-4,5,6,7-tetrahydro-1H-indazole-3-carboxylic acid [2-hydroxy-2-(4-methoxy-phenyl)-ethyl]-amide], the pIC50 at human CB2 receptor (setting [1]) is 6.30; at human CB1 receptor, 5.47.

On to `O=C(N[C@H]1CCCC[C@H]1CO)c1nn(C2CCCCC2)c2c1CCCC2Cl` (stereo partly drawn) [Cpd 60, 7-chloro-1-cyclohexyl-4,5,6,7-tetrahydro-1H-indazole-3-carboxylic acid [(1S,2R)-2-hydroxymethyl-cyclohexyl]-amide], for which the results for the negative logarithm of the IC50 (pIC50) at human CB2 receptor (setting [1]) and on human CB1 receptor were 6.29 and 5.28, respectively.

In the case of `O=C(NCc1cccnc1)c1nn(C2CCCCC2)c2c1CCCC2` [compound 173], the figures for the pIC50 on human CB2 receptor (setting [1]) and at human CB1 receptor were 6.28 and 6.35, respectively.

Turning to `CC12CCC(C1)C(C)(C)C2NC(=O)c1nn(-c2ccc(Cl)cc2)c2c1CCCC2` (stereo not shown) [compound 12], the pIC50 on human CB2 receptor (setting [1]) is 7.67; on human CB1 receptor, 6.83.

For the molecule `CCN(C(=O)c1nn(C2CCCCC2)c2c1CCCC2)[C@H](C)C1CCCCC1` [compound 203], the figures for the pIC50 at human CB2 receptor (setting [1]) and on human CB1 receptor were 6.62 and 6.23, respectively.

Take `CCOC(=O)[C@H]1CCC[C@H]1NC(=O)c1nn(C2CCCCC2)c2c1CCCC2` [compound 58]: the pIC50 was 6.77 on human CB2 receptor (setting [1]) and 6.13 against human CB1 receptor.

For the molecule `C[C@H](NC(=O)c1nn(Cc2ccccc2)c2c1CCCC2)C1CCCCC1` [compound 201], the pIC50 at human CB2 receptor (setting [1]) was 8.70; against human CB1 receptor, 8.77.

As to `CCOC(=O)C1CCc2c(c(C(=O)NC3C4CCC(C4)C3C(=O)OCC)nn2C2CCCCC2)C1` (stereo not shown) [compound 137], the pIC50 is 5.81 on human CB2 receptor (setting [1]) and 5.40 against human CB1 receptor.

On to `CC(C)(C)CC(C)(C)NC(=O)C1CCc2c(c(C(=O)NC3C4CC5CC(C4)CC3C5)nn2C2CCCCC2)C1` (stereo not shown) [Cpd 228, 1-cyclohexyl-4,5,6,7-tetrahydro-1H-indazole-3,5-dicarboxylic acid 3-adamantan-2-ylamide 5-[(1,1,3,3-tetramethyl-butyl)-amide]], for which the negative logarithm of the IC50 (pIC50) on human CB2 receptor (setting [1]) is 6.60.

Consider `CCOC(=O)C1CCc2c(c(C(=O)NCC34CC5CC(CC(C5)C3)C4)nn2-c2ccccc2)C1` (stereo not shown) [compound 117], for which, on human CB2 receptor (setting [1]), the pIC50 is 6.43.

On human CB2 receptor (setting [1]), `CC(NC(=O)c1nn(Cc2ccccc2)c2c1CC(C(=O)O)CC2)C12CC3CC(CC(C3)C1)C2` (stereo not shown) [compound 166] had a pIC50 of 5.77.

`O=C(NC1C2CCC(C2)C1C(=O)O)c1nn(C2CCCCC2)c2c1CC(C(=O)O)CC2` (stereo not shown) [compound 138]: at human CB2 receptor (setting [2]), the pIC50 is 4.93.

In turn, `CC(C)(C)C1CCc2c(c(C(=O)NC34CC5CC(CC(C5)C3)C4)nn2-c2ccccc2)C1` (stereo not shown) [compound 113] gave a pIC50 at human CB2 receptor (setting [1]) of 6.11.

Consider `CC12CCC(C1)C(C)(C)C2NC(=O)c1nn(C2CCCCC2)c2c1CC(C(N)=O)CC2` (stereo not shown) [compound 170], for which, on human CB2 receptor (setting [1]), the negative-log IC50 (pIC50) is 6.52.

Turning to `COc1ccc(-n2nc3c(c2C(=O)NCCc2ccc(N)cc2)CCCC3)cc1` [compound 8], the pIC50 on human CB2 receptor (setting [2]) was 4.67.

Molecule `CC(C)(C)OC(=O)NC1CCc2c(c(C(=O)NC3C4(C)CCC(C4)C3(C)C)nn2C2CCCCC2)C1` (stereo not shown) [Cpd 86, [1-cyclohexyl-3-(1,3,3-trimethyl-bicyclo[2.2.1]hept-2-ylcarbamoyl)-4,5,6,7-tetrahydro-1H-indazol-5-yl]-carbamic acid tert-butyl ester] gave a pIC50 on human CB2 receptor (setting [1]) of 6.56.

`CC(C)(C)C1CCc2c(c(C(=O)NC3C4(C)CCC(C4)C3(C)C)nn2-c2ccccc2)C1` (stereo not shown) [compound 111] showed a negative-log IC50 (pIC50) at human CB2 receptor (setting [1]) of 6.77.

Regarding `CCOC(=O)[C@H]1C2CCC(C2)[C@H]1NC(=O)c1nn(-c2ccc(F)cc2)c2c1CCCC2CC` (stereo partly shown) [compound 191], at human CB2 receptor (setting [1]), the pIC50 was 6.72.

At human CB2 receptor (setting [1]), `CC12CCC(C1)C(C)(C)C2NC(=O)c1nn(-c2ccccn2)c2c1CCCC2` (stereo not shown) [compound 160] showed a pIC50 of 5.46.

Consider `O=C(Nc1nn(C2CCCCC2)c2c1CCCC2)c1ccc2ccccc2c1` [Cpd 178, naphthalene-2-carboxylic acid (1-cyclohexyl-4,5,6,7-tetrahydro-1H-indazol-3-yl)-amide], for which the pIC50 on human CB2 receptor (setting [1]) was 5.54.

For `COc1ccc(C(=O)CNC(=O)c2nn(C3CCCCC3)c3c2CCCC3)cc1` [Cpd 176], the pIC50 on human CB2 receptor (setting [1]) is 5.40.

The molecule `CCOC(=O)c1c(NC(=O)c2nn(C3CCCCC3)c3c2CCCC3)sc2c1CCC2` [compound 56] gave a negative logarithm of the IC50 (pIC50) at human CB2 receptor (setting [1]) of 4.70.

At human CB2 receptor (setting [1]), `C[C@@H](NC(=O)C=Cc1nn(Cc2ccccc2)c2c1CCCC2)c1ccccc1` [Cpd 306, 3-(1-benzyl-4,5,6,7-tetrahydro-1H-indazol-3-yl)-N-[(1R)-1-phenyl-ethyl]-acrylamide] showed a pIC50 of 5.74.

Turning to `O=C(NC1CN2CCC1CC2)c1nn(C2CCCCC2)c2c1CCCC2` (stereo not shown) [compound 225], the pIC50 at human CB2 receptor (setting [2]) is 6.19.

For the molecule `CCOC(=O)C1CCc2c(c(C(=O)NC3C4CC5CC(C4)CC3C5)nn2-c2ccccc2)C1` (stereo not shown) [compound 115], the pIC50 on human CB2 receptor (setting [1]) was 6.74.

Regarding `O=C(Nc1nn(Cc2ccccc2)c2c1CCCC2)NC12CC3CC(CC(C3)C1)C2` [compound 337], on human CB2 receptor (setting [1]), the negative-log IC50 (pIC50) is 7.10.

Molecule `CCOC(=O)C1CCc2c(c(C(=O)NN3CCCCC3)nn2C2CCCCC2)C1` (stereo not shown) [compound 229] showed a pIC50 at human CB2 receptor (setting [1]) of 5.89.

For the molecule `O=C(NNC1CCCCCCC1)c1nn(-c2ccc(F)cc2)c2c1CCCC2` [compound 299], at human CB2 receptor (setting [1]), the pIC50 is 5.26.

`C[C@@H](NC(=O)c1nn(C2CCCCC2)c2c1CC(NC(=O)OC(C)(C)C)CC2)C1CCCCC1` (stereo partly shown) [compound 286] showed a pIC50 on human CB2 receptor (setting [1]) of 5.57.

At human CB2 receptor (setting [1]), `CCOC(=O)C1CCc2c(c(C(=O)NC34CC5CC(CC(C5)C3)C4)nn2-c2ccccc2)C1` (stereo not shown) [compound 118] gave a pIC50 of 6.40.

`O=C(NCC(O)c1ccc(Br)cc1)c1nn(C2CCCCC2)c2c1CCCC2` (stereo not shown) [compound 240] showed a pIC50 at human CB2 receptor (setting [1]) of 5.77.

As for `O=C(Nc1nn(C2CCCCC2)c2c1CCCC2)c1ccccc1` [compound 186], at human CB2 receptor (setting [2]), the pIC50 was 5.64.

For the molecule `CCOC(=O)c1c(NC(=O)c2nn(C3CCCCC3)c3c2CCCC3)sc2c1CCCCC2` [compound 55], at human CB2 receptor (setting [1]), the pIC50 was 5.10.

Regarding `COC(=O)C(Cc1ccc(OCc2ccccc2)cc1)NC(=O)c1c2c(nn1-c1ccc(OC)cc1)CCCC2` (stereo not shown) [compound 4], the pIC50 at human CB2 receptor (setting [2]) was 5.43.

Regarding `CCN(C(=O)c1c2c(nn1-c1ccc(OC)cc1)CCCC2)c1ccccc1OC` [compound 121], the pIC50 on human CB2 receptor (setting [2]) is 5.20.

As to `CN1C2CCC1CC(NC(=O)c1nn(C3CCCCC3)c3c1CCCC3)C2` (stereo not shown) [compound 46], on human CB2 receptor (setting [1]), the pIC50 was 5.04.

`O=C(NC1C2CC3CC(C2)CC1C3)c1nn(Cc2ccccc2)c2c1CC(C(=O)O)CC2` (stereo not shown) [compound 239]: on human CB2 receptor (setting [1]), the pIC50 is 6.52.

On human CB2 receptor (setting [1]), `C[C@@H](NC(=O)c1nn(-c2ccccc2)c2c1CC(C(C)(C)C)CC2)C1CCCCC1` (stereo partly shown) [compound 114] showed a pIC50 of 6.28.

For `O=C(CNC(=O)c1nn(C2CCCCC2)c2c1CCCC2)c1ccccc1` [compound 188], the pIC50 on human CB2 receptor (setting [1]) is 5.29.

With `O=C(Nc1nn(C2CCCCC2)c2c1CCCC2)NC12CC3CC(CC(C3)C1)C2` [Cpd 182, 1-adamantan-1-yl-3-(1-cyclohexyl-4,5,6,7-tetrahydro-1H-indazol-3-yl)-urea], the pIC50 at human CB2 receptor (setting [1]) is 7.55.
